Results on 4 compounds are retold here after ChEMBL document CHEMBL1201862, “PubChem BioAssay data set” (2004).

Test systems include NCI/ADR-RES; HCT-15; OVCAR-4; MDA-N; SK-MEL-5; HL-60; HCT-116; EKVX; LXFL 529; SK-MEL-2; UO-31; NCI-H23; SN12C; RPMI-8226; HOP-92; ACHN; OVCAR-8; PC-3; MOLT-4; TK-10.
Common to all, as to experiment: NCI tumour cell line growth inhibition, 48 h

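Exposure lasted 48 hours, with cells grown in 96-well plates and compounds tested at five concentrations. GI50 is the concentration that inhibits growth by half.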 Active and inactive are the calls of the source. Cut-off read from the data, not from the text of the source: active = GI50 up to about 1.1 µM and inactive = higher.

For `C[n+]1c(Cl)cn2c3nc4ccccc4nc3c([O-])c(C#N)c21`, the GI50 in the assay on NCI/ADR-RES is > 100 µM (inactive); with HCT-15, above 10 µM; with OVCAR-4, > 59 µM (inactive); with MDA-N, > 100 µM (inactive); with SK-MEL-5, > 4.65 µM (inactive); in the assay with HL-60, > 100 µM (inactive). Besides, the GI50 in the assay on HCT-116 is > 100 µM (inactive); in the assay on EKVX, > 100 µM (inactive); in the assay with LXFL 529, > 100 µM (inactive); with SK-MEL-2 it was > 4.65 µM (inactive); in the assay with UO-31, > 100 µM (inactive); in the assay with NCI-H23 it was > 100 µM (inactive). Also, the GI50 in the assay with SN12C is > 100 µM (inactive); in the assay on RPMI-8226, > 100 µM (inactive); in the assay with HOP-92, > 100 µM (inactive); in the assay with ACHN, 99.1 µM (inactive); in the assay with OVCAR-8 it was > 100 µM (inactive); in the assay on PC-3, > 100 µM (inactive). The GI50 is > 100 µM (inactive) in the assay on MOLT-4 and > 10 µM (inactive) in the assay with TK-10.

On to `C=C1C(=O)OC2/C=C(\CO)C3OC3C3OC3(C)CC(OC(=O)/C(=C/C)COC(C)=O)C12` (configuration not stated), for which the GI50 with NCI/ADR-RES was 12.1 µM (inactive); in the assay with HCT-15, 2.12 µM; in the assay on OVCAR-4 it was 8.3 µM (inactive); in the assay on MDA-N, 3.58 µM (inactive); with SK-MEL-5, 8.13 µM (inactive); in the assay on HL-60 it was 1.39 µM (inactive). The GI50 in the assay on HCT-116 was 1.55 µM (inactive); with EKVX, 3.81 µM (inactive); in the assay with LXFL 529, 0.805 µM (active); in the assay on SK-MEL-2, 3.31 µM (inactive); in the assay with UO-31, 10.6 µM (inactive); with NCI-H23, 6.93 µM (inactive). Moreover, the GI50 was 3.2 µM (inactive) in the assay on SN12C; > 100 µM (inactive) with RPMI-8226; 2.01 µM (inactive) in the assay with HOP-92; 3.4 µM (inactive) in the assay on ACHN; 2.79 µM (inactive) in the assay on OVCAR-8; 14 µM (inactive) in the assay with PC-3. The GI50 was 7.89 µM (inactive) in the assay with MOLT-4 and 2.94 µM (inactive) in the assay on TK-10.

Turning to `CC(=O)C(O)N1C(=O)C=CC1=O` (configuration not stated), the GI50 in the assay with NCI/ADR-RES was 13.2 µM (inactive); in the assay on HCT-15 it was 1.84 µM; in the assay with MDA-N, 18.6 µM (inactive); in the assay on SK-MEL-5, 17.8 µM (inactive); in the assay with HL-60 it was 1.74 µM (inactive); with HCT-116, 5.61 µM (inactive). The GI50 in the assay on EKVX is 6.5 µM (inactive); with LXFL 529, 1.82 µM (inactive); in the assay on SK-MEL-2 it was 17.5 µM (inactive); in the assay on UO-31, 5.86 µM (inactive); in the assay on NCI-H23 it was 15.9 µM (inactive); with SN12C, 2.83 µM (inactive). Also, the GI50 with RPMI-8226 is 2.26 µM (inactive); with HOP-92, 2.07 µM (inactive); in the assay with ACHN, 2.61 µM (inactive); with OVCAR-8, 6.22 µM (inactive); with PC-3 it was 6.11 µM (inactive); in the assay with MOLT-4, 2.05 µM (inactive). Also, in the assay with TK-10, the GI50 is 2.53 µM (inactive).

As for `C=C1C(=O)O[C@@H]2C[C@@H](C)[C@@H]3C=CC(=O)[C@@]3(C)[C@@H](O)[C@H]12` [HELENALIN], the GI50 was 2.33 µM in the assay on HCT-15; 2.77 µM (inactive) in the assay on OVCAR-4; 2.08 µM (inactive) in the assay on MDA-N; 1.3 µM (inactive) in the assay with SK-MEL-5; 0.525 µM (active) with HL-60; 0.51 µM (active) with HCT-116. Besides, the GI50 with EKVX was 3.13 µM (inactive); in the assay with LXFL 529, 0.493 µM (active); in the assay on SK-MEL-2, 1.86 µM (inactive); in the assay on UO-31, 1.68 µM (inactive); in the assay with NCI-H23 it was 1.66 µM (inactive); with SN12C it was 1.36 µM (inactive). In addition, the GI50 is 0.532 µM (active) in the assay on RPMI-8226; 1.66 µM (inactive) with ACHN; 1.48 µM (inactive) in the assay on OVCAR-8; 1.92 µM (inactive) in the assay on PC-3; 0.851 µM (active) with MOLT-4; 4.05 µM (inactive) with TK-10.
